Source: ChEMBL document CHEMBL6134819, “Discovery of novel tranylcypromine-indazole-based derivatives as LSD1 inhibitors for acute myeloid leukemia treatment” (Eur J Med Chem, 2025)
Active and inactive are the calls of the source. The calls are words filed in the database; no cut-off is given here.

Assays:
MV4-11 [1] = assay: Antiproliferative activity against human MV4-11 cells assessed as inhibition of cell growth measured after 7 days by cell-titer glo assay; assay type: functional, cell-based; conditions: MV4-11, 168 h
HL-60 = assay: Antiproliferative activity against human HL-60 cells assessed as inhibition of cell growth measured after 7 days by cell-titer glo assay; assay type: functional, cell-based; conditions: HL-60, 168 h
[2] = target: T1, Amine oxidase [flavin-containing] B (Homo sapiens, UniProt P27338); assay: Inhibition of human N-terminal Flag-tagged MAOB extracted baculovirus infected in Sf9 cells measured after 0.5 hrs by MAO-Glo Assay; assay type: cell-based
T1 sequence (P27338 whole entry): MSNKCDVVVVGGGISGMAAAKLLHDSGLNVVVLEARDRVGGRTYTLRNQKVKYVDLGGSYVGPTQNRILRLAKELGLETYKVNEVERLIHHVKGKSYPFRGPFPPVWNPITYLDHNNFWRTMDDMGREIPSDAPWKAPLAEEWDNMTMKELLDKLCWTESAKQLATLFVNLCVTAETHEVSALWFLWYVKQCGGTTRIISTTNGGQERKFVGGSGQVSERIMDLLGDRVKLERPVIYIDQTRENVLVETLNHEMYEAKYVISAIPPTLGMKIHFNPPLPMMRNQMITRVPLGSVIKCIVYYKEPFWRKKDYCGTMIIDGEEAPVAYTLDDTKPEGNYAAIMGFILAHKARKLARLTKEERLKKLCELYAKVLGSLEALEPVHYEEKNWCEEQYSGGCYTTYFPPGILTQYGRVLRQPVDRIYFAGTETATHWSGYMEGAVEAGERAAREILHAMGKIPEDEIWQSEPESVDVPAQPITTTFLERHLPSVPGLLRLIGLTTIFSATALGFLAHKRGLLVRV

[3] = target: Voltage-gated inwardly rectifying potassium channel KCNH2 (Homo sapiens, UniProt Q12809); assay: Inhibition of human ERG by whole cell patch clamp assay; assay type: toxicity
[4] = target: T2, Lysine-specific histone demethylase 1A (Homo sapiens, UniProt O60341); assay: Inhibition of LSD1 in human MV4-11 cells assessed as increase in LSD1 protein level at 2 to 4 micromol/L measured after 48 hrs by Western blot analysis; assay type: cell-based; conditions: dose 2-4 µmol/L
[5] = target: T2, Lysine-specific histone demethylase 1A; assay: Inhibition of LSD1 in human MV4-11 cells assessed as increase in H3K4 expression level at 2 to 4 micromol/L measured after 48 hrs by Western blot analysis; assay type: cell-based; conditions: dose 2-4 µmol/L
MV4-11 [6] = assay: Induction of apoptosis in human MV4-11 cells measured after 48 hrs by Annexin V-FITC/PI double staining based flow cytometry analysis; assay type: functional, cell-based; conditions: dose 2-4 µmol/L
MV4-11 [7] = assay: Induction of apoptosis in human MV4-11 cells assessed as increase in early apoptosis measured after 48 hrs by Annexin V-FITC/PI double staining based flow cytometry analysis; assay type: functional, cell-based; conditions: dose 2-4 µmol/L
MV4-11 [8] = assay: Induction of apoptosis in human MV4-11 cells assessed as increase in late apoptosis measured after 48 hrs by Annexin V-FITC/PI double staining based flow cytometry analysis; assay type: functional, cell-based; conditions: dose 2-4 µmol/L
MV4-11 [9] = assay: Induction of apoptosis in human MV4-11 cells assessed as viable cells at 2 micromol/L measured after 48 hrs by Annexin V-FITC/PI double staining based flow cytometry analysis (reference value: 89.13%); assay type: functional; conditions: MV4-11, 48 h, dose 2 µmol/L, read-out: Activity
MV4-11 [10] = assay: Induction of apoptosis in human MV4-11 cells assessed as early apoptotic cells at 2 micromol/L measured after 48 hrs by Annexin V-FITC/PI double staining based flow cytometry analysis (reference value: 2.01 %); assay type: functional; conditions: dose 2 µmol/L, at 2 µM
MV4-11 [11] = assay: Induction of apoptosis in human MV4-11 cells assessed as early apoptotic cells at 3 micromol/L measured after 48 hrs by Annexin V-FITC/PI double staining based flow cytometry analysis (reference value: 2.01 %); assay type: functional; conditions: dose 3 µmol/L, at 3 µM
MV4-11 [12] = assay: Induction of apoptosis in human MV4-11 cells assessed as early apoptotic cells at 4 micromol/L measured after 48 hrs by Annexin V-FITC/PI double staining based flow cytometry analysis (reference value: 2.01 %); assay type: functional; conditions: dose 4 µmol/L, at 4 µM
MV4-11 [13] = assay: Induction of apoptosis in human MV4-11 cells assessed as late apoptotic cells at 3 micromol/L measured after 48 hrs by Annexin V-FITC/PI double staining based flow cytometry analysis (reference value: 7.70 %); assay type: functional; conditions: dose 3 µmol/L, at 3 µM
MV4-11 [14] = assay: Induction of apoptosis in human MV4-11 cells assessed as late apoptotic cells at 4 micromol/L measured after 48 hrs by Annexin V-FITC/PI double staining based flow cytometry analysis (reference value: 7.70 %); assay type: functional; conditions: dose 4 µmol/L, at 4 µM
MV4-11 [15] = assay: Induction of apoptosis in human MV4-11 cells assessed as necrotic cells at 3 micromol/L measured after 48 hrs by Annexin V-FITC/PI double staining based flow cytometry analysis (reference value: 1.16 %); assay type: functional; conditions: dose 3 µmol/L, at 3 µM
MV4-11 [16] = assay: Induction of apoptosis in human MV4-11 cells assessed as increase in cleaved caspase-3 level at 2 to 4 micromol/L measured after 72 hrs by Western blot analysis; assay type: functional, cell-based; conditions: dose 2-4 µmol/L
MV4-11 [17] = assay: Induction of apoptosis in human MV4-11 cells assessed as increase in cleaved PARP level at 2 to 4 micromol/L measured after 72 hrs by Western blot analysis; assay type: functional, cell-based; conditions: dose 2-4 µmol/L
MV4-11 [18] = assay: Upregulation of CD86 expression in human MV4-11 cells incubated for 48 hrs by flow cytometry analysis; assay type: functional, cell-based; conditions: dose 2-4 µmol/L
[19] = Metabolic stability in human liver microsomes assessed as intrinsic clearance measured up to 60 mins in presence of NADPH by LC-MS/MS analysis; assay type: ADME, Microsome; conditions: read-out: CLH
[20] = Metabolic stability in mouse liver microsomes assessed as half life measured up to 60 mins in presence of NADPH by LC-MS/MS analysis; assay type: ADME, Microsome
[21] = Metabolic stability in mouse liver microsomes assessed as intrinsic clearance measured up to 60 mins in presence of NADPH by LC-MS/MS analysis; assay type: ADME, Microsome; conditions: read-out: CLH
[22] = Metabolic stability in rat liver microsomes assessed as half life measured up to 60 mins in presence of NADPH by LC-MS/MS analysis; assay type: ADME, Microsome
[23] = Octanol-water partition coefficient, logP of the compound; assay type: physicochemical
[24] = AUC (0 to infinity) in male Sprague-Dawley rat at 10 mg/kg, po measured up to 24 hrs by LC-MS/MS analysis; assay type: ADME, organism-based; conditions: in vivo
[25] = AUC (0 to t) in male Sprague-Dawley rat at 10 mg/kg, po measured up to 24 hrs by LC-MS/MS analysis; assay type: ADME, organism-based; conditions: in vivo
[26] = Cmax in male Sprague-Dawley rat at 10 mg/kg, po measured up to 24 hrs by LC-MS/MS analysis; assay type: ADME, organism-based; conditions: in vivo
[27] = AUC (0 to t) in male Sprague-Dawley rat at 1 mg/kg, iv measured up to 24 hrs by LC-MS/MS analysis; assay type: ADME, organism-based; conditions: in vivo
[28] = Half life in male Sprague-Dawley rat at 1 mg/kg, iv measured up to 24 hrs by LC-MS/MS analysis; assay type: ADME, organism-based; conditions: in vivo
[29] = Cmax in male Sprague-Dawley rat at 1 mg/kg, iv measured up to 24 hrs by LC-MS/MS analysis; assay type: ADME, organism-based; conditions: in vivo
[30] = Clearance in male Sprague-Dawley rat at 1 mg/kg, iv measured up to 24 hrs by LC-MS/MS analysis; assay type: ADME, organism-based; conditions: in vivo

Voltage-gated inwardly rectifying potassium channel KCNH2, sequence (Q12809 whole entry): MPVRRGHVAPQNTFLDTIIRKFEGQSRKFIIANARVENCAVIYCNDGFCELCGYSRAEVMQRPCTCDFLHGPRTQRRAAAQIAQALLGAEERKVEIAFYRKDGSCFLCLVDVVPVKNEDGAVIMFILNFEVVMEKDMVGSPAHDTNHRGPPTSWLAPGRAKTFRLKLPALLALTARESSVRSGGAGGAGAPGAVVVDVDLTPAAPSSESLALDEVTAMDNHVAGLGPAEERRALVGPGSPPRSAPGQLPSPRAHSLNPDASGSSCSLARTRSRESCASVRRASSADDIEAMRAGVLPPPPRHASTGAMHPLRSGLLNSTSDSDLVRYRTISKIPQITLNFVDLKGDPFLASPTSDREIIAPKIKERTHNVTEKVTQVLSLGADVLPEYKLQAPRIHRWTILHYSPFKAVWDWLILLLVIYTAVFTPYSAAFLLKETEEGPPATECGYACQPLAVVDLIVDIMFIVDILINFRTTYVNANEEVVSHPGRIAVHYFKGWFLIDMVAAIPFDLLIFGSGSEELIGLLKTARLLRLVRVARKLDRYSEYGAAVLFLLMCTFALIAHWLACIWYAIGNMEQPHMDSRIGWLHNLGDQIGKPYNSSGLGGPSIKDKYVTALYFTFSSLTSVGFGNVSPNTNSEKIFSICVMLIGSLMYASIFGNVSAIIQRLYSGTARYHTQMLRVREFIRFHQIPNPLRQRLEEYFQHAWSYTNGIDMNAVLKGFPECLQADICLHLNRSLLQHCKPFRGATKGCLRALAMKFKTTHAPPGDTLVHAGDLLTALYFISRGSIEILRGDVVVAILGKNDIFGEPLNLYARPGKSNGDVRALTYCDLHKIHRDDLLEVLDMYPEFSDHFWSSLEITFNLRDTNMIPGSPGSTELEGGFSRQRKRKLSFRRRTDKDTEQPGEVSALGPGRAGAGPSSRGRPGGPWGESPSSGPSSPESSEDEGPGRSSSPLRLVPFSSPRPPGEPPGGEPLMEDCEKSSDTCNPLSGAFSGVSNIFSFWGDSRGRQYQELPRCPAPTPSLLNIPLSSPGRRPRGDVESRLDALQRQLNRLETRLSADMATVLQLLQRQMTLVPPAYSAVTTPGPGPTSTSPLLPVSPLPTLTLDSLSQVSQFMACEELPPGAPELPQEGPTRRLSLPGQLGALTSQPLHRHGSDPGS

SMILES: Cl.O=S(=O)(c1ccccc1)n1ncc2cc(-n3cc(CN[C@@H]4C[C@H]4c4ccc(F)c(F)c4)nn3)ccc21
- IC50 (MV4-11 [1]): 1.4 µM
- IC50 (HL-60): 1.4 µM
- IC50 [2]: 2.65 µM
- IC50 [3]: 0.576 µM
- inhibition [4]: Active
- inhibition [5]: Active
- Activity (MV4-11 [6]): Dose-dependent-effect
- Activity (MV4-11 [7]): Dose-dependent-effect
- Activity (MV4-11 [8]): Dose-dependent-effect
- viability at 2 µM (MV4-11 [9]): 80.4%
- Activity (MV4-11 [10]): 2.52%
- Activity (MV4-11 [11]): 3.18%
- Activity (MV4-11 [12]): 4.28%
- Activity (MV4-11 [13]): 13.22%
- Activity (MV4-11 [14]): 15.39%
- Activity (MV4-11 [15]): 2.8%
- Activity (MV4-11 [16]): Active
- Activity (MV4-11 [17]): Active
- Activity (MV4-11 [18]): Dose-dependent-effect
- CLint scaled [19]: 6.48 L/h/kg
- half-life [20]: 5.3 min
- CLint scaled [21]: 15.7 L/h/kg
- half-life [22]: 3.94 min
- logP [23]: 4.2
- AUC(0-inf) [24]: 0.29 µg·h/mL
- AUC(0-t) at 24 h [25]: 0.28 µg·h/mL
- Cmax [26]: 0.0898 µg/mL
- AUC(0-t) at 24 h [27]: 0.481 µg·h/mL
- half-life [28]: 41.4 min
- Cmax [29]: 0.869 µg/mL
- clearance [30]: 2.12 L/h/kg
